We go through 19 molecules from PubChem BioAssay AID248 (DTP/NCI, 2004).

“And” between values parts separate entries of the source, which are not always exact repeats. Identical values can stand only once. Inconclusive results and toxic doses are left out.

The experiment relates to L1210 leukemia ip in BDF1 mice, survival T/C. Briefly: NCI In Vivo Anticancer Drug Screen. Data for tumor model L1210 Leukemia (intraperitoneal) in B6D2F1 (BDF1) mice. Particulars: endpoint: mean survival time, higher = longer survival. In outline: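 Value reflects the ratio of survival in compound-treated mice to survival in vehicle-treated controls, with both groups carrying the same transplanted tumor.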

Setting [1] is: dose: 100.0 mg/kg/injection, schedule: Q04DX003 (ip), vehicle: saline with Tween-80.
Setting [2] is: dose: 200.0 mg/kg/injection, schedule: Q04DX003 (ip), vehicle: saline with Tween-80.
Where [3] appears, read: dose: 400.0 mg/kg/injection, schedule: Q04DX003 (ip), vehicle: saline with Tween-80.
The mark [4] stands for this setting: dose: 100.0 mg/kg/injection, schedule: Q04DX003 (ip), vehicle: Klucel (hydroxypropylcellulose) (HPC).
Where [5] appears, read: dose: 200.0 mg/kg/injection, schedule: Q04DX003 (ip), vehicle: Klucel (hydroxypropylcellulose) (HPC).
Where [6] appears, read: dose: 400.0 mg/kg/injection, schedule: Q04DX003 (ip), vehicle: Klucel (hydroxypropylcellulose) (HPC).
Setting [7] is: dose: 50.0 mg/kg/injection, schedule: Q01DX001 (ip), vehicle: saline.
Setting [8] is: dose: 100.0 mg/kg/injection, schedule: Q01DX001 (ip), vehicle: saline.
The mark [9] stands for this setting: dose: 200.0 mg/kg/injection, schedule: Q01DX001 (ip), vehicle: saline.
Where [10] appears, read: dose: 100.0 mg/kg/injection, schedule: Q04DX002 (ip), vehicle: Klucel (hydroxypropylcellulose) (HPC).
The mark [11] stands for this setting: dose: 200.0 mg/kg/injection, schedule: Q04DX002 (ip), vehicle: Klucel (hydroxypropylcellulose) (HPC).
Setting [12] is: dose: 400.0 mg/kg/injection, schedule: Q04DX002 (ip), vehicle: Klucel (hydroxypropylcellulose) (HPC).

As for `COc1c(C)ccc([N+](=O)[O-])c1OC`, the T/C by setting is: under setting [1], 94 % of control; under setting [2], 97 % of control; under setting [3], 97 % of control.
On to `COC1=NS(=O)(=O)CC(c2ccccc2)O1` (stereo not given), for which the T/C (dose: 75.0 mg/kg/injection, schedule: Q04DX003 (ip), vehicle: other) was 102 % of control; the T/C (dose: 150.0 mg/kg/injection, schedule: Q04DX003 (ip), vehicle: other) is 86 % of control; the T/C (dose: 300.0 mg/kg/injection, schedule: Q04DX003 (ip), vehicle: other) is 94 % of control.
For the molecule `CCCCN(CCCC)CCC(=O)OCC`, the T/C under setting [1] was 94 % of control, the T/C under setting [2] is 101 % of control and the T/C under setting [3] is 89 % of control.
`CC1=CC(C)(C(Cl)(Cl)Cl)C=C/C1=N\OC(C)C(=O)O` (stereo not given): the T/C (dose: 75.0 mg/kg/injection, schedule: Q01DX001 (ip), vehicle: carboxymethylcellulose (CMC)) is 95 % of control; the T/C (dose: 100.0 mg/kg/injection, schedule: Q04DX003 (ip), vehicle: saline) was 106 % of control; the T/C (dose: 150.0 mg/kg/injection, schedule: Q01DX001 (ip), vehicle: carboxymethylcellulose (CMC)) is 106 % of control; the T/C (dose: 200.0 mg/kg/injection, schedule: Q04DX003 (ip), vehicle: saline) was 95 % of control; the T/C (dose: 400.0 mg/kg/injection, schedule: Q04DX003 (ip), vehicle: saline) was 97 % of control.
In the case of `COc1ccc(C2C3C=CC(C3)C2C(=O)O)cc1` (stereo not given), the T/C runs as follows: (dose: 100.0 mg/kg/injection, schedule: Q01DX009 (ip), vehicle: saline with Tween-80) 97 % of control; under setting [1], 93 % of control; (dose: 200.0 mg/kg/injection, schedule: Q01DX009 (ip), vehicle: saline with Tween-80) 93 % of control; (dose: 400.0 mg/kg/injection, schedule: Q01DX009 (ip), vehicle: saline with Tween-80) 95 % of control; under setting [3], 91 % of control.
With `O=[N+]([O-])c1cccc(S(=O)(=O)NNc2cccc(Cl)c2)c1`, the T/C under setting [4] was 94 % of control, the T/C under setting [5] was 94 % of control and the T/C under setting [6] was 98 % of control.
For `O=C(Nc1ccc(C2=NCCN2)cc1)Nc1cccc(NC(=O)Nc2cccc(C3=NCCN3)c2)c1`, the T/C by setting is: (dose: 1.0 mg/kg/injection, schedule: Q01DX Z (ip), vehicle: carboxymethylcellulose (CMC)) 120 % of control and 90 % of control; (dose: 2.0 mg/kg/injection, schedule: Q01DX Z (ip), vehicle: carboxymethylcellulose (CMC)) 101 % of control and 107 % of control; (dose: 4.0 mg/kg/injection, schedule: Q01DX Z (ip), vehicle: carboxymethylcellulose (CMC)) 113 % of control; (dose: 8.0 mg/kg/injection, schedule: Q01DX Z (ip), vehicle: carboxymethylcellulose (CMC)) 121 % of control and 244 % of control; (dose: 8.0 mg/kg/injection, schedule: Q01DX Z (ip), vehicle: water) 286 % of control; (dose: 16.0 mg/kg/injection, schedule: Q01DX Z (ip), vehicle: carboxymethylcellulose (CMC)) 332 % of control. Also, the T/C runs as follows: (dose: 16.0 mg/kg/injection, schedule: Q01DX Z (ip), vehicle: water) 172 % of control; (dose: 31.0 mg/kg/injection, schedule: Q01DX Z (oral), vehicle: water) 104 % of control; (dose: 62.0 mg/kg/injection, schedule: Q01DX Z (oral), vehicle: water) 112 % of control; (dose: 125.0 mg/kg/injection, schedule: Q01DX Z (oral), vehicle: water) 104 % of control; (dose: 250.0 mg/kg/injection, schedule: Q01DX Z (oral), vehicle: water) 102 % of control.
Regarding `CC(C)C1=CCC(OC(=O)c2ccc(NC(=S)Nc3ccccc3)cc2)CC1` (stereo not given), the T/C is 92 % of control under setting [1], 96 % of control under setting [2] and 89 % of control under setting [3].
For the molecule `CCCC1COCC(CC)/C1=N\Nc1ccc([N+](=O)[O-])cc1[N+](=O)[O-]` (stereo not given), the T/C (dose: 100.0 mg/kg/injection, schedule: Q01DX001 (ip), vehicle: Klucel (hydroxypropylcellulose) (HPC)) is 91 % of control; the T/C (dose: 200.0 mg/kg/injection, schedule: Q01DX001 (ip), vehicle: Klucel (hydroxypropylcellulose) (HPC)) is 94 % of control; the T/C (dose: 400.0 mg/kg/injection, schedule: Q01DX001 (ip), vehicle: Klucel (hydroxypropylcellulose) (HPC)) was 91 % of control.
On to `Nc1ccc(C(=O)O)cn1`, for which the T/C runs as follows: under setting [7], 96 % of control; under setting [8], 106 % of control; under setting [9], 100 % of control.
On to `OCCCOc1cccc(Cl)c1`, for which the T/C reads like this: (dose: 75.0 mg/kg/injection, schedule: Q04DX002 (ip), vehicle: Klucel (hydroxypropylcellulose) (HPC)) 105 % of control; (dose: 150.0 mg/kg/injection, schedule: Q04DX002 (ip), vehicle: Klucel (hydroxypropylcellulose) (HPC)) 108 % of control; (dose: 300.0 mg/kg/injection, schedule: Q04DX002 (ip), vehicle: Klucel (hydroxypropylcellulose) (HPC)) 105 % of control.
For `Cc1c2cc3c(c1O)C(=O)CC(O3)c1ccc(O)c(c1)-c1ccc(O)c(c1)C(=O)OCC1OC(O2)C(O)C(O)C1O` (stereo not given), the T/C is, setting by setting: (dose: 0.13 mg/kg/injection, schedule: Q01DX009 (ip), vehicle: Klucel (hydroxypropylcellulose) (HPC)) 98 % of control; (dose: 0.25 mg/kg/injection, schedule: Q01DX009 (ip), vehicle: Klucel (hydroxypropylcellulose) (HPC)) 95 % of control; (dose: 0.5 mg/kg/injection, schedule: Q01DX009 (ip), vehicle: Klucel (hydroxypropylcellulose) (HPC)) 101 % of control; (dose: 1.0 mg/kg/injection, schedule: Q01DX009 (ip), vehicle: Klucel (hydroxypropylcellulose) (HPC)) 114 % of control.
As to `c1ccc(C2OC2c2ccccc2)cc1` (stereo not given), the T/C reads like this: (dose: 100.0 mg/kg/injection, schedule: Q01DX009 (ip), vehicle: Klucel (hydroxypropylcellulose) (HPC)) 98 % of control; under setting [10], 107 % of control; under setting [4], 110 % of control; (dose: 200.0 mg/kg/injection, schedule: Q01DX009 (ip), vehicle: Klucel (hydroxypropylcellulose) (HPC)) 102 % of control; under setting [11], 110 % of control; under setting [5], 100 % of control. Besides, the T/C by setting is: (dose: 400.0 mg/kg/injection, schedule: Q01DX009 (ip), vehicle: Klucel (hydroxypropylcellulose) (HPC)) 104 % of control; under setting [12], 93 % of control; under setting [6], 109 % of control.
In the case of `Oc1ccccc1-c1nc2ccccc2[nH]1`, the T/C is 109 % of control under setting [10], 98 % of control under setting [11] and 95 % of control under setting [12].
Regarding `O=C(c1ccccc1)C1C(C(=O)c2ccccc2)C(c2ccccc2)N(c2ccccc2)C1c1ccccc1` (stereo not given), the T/C under setting [7] is 94 % of control; the T/C under setting [8] is 94 % of control; the T/C under setting [9] is 97 % of control; the T/C (dose: 400.0 mg/kg/injection, schedule: Q01DX001 (ip), vehicle: saline) is 105 % of control.
As for `COC1(OC)C2CCC1C(O)C2` (stereo not given), the T/C is, setting by setting: (dose: 100.0 mg/kg/injection, schedule: Q01DX009 (ip), vehicle: saline) 104 % of control; (dose: 200.0 mg/kg/injection, schedule: Q01DX009 (ip), vehicle: saline) 105 % of control.
Regarding `NC(=O)C(=O)OCc1ccccc1`, the T/C runs as follows: (dose: 100.0 mg/kg/injection, schedule: Q01DX001 (ip), vehicle: steriod suspending solution) 105 % of control; (dose: 200.0 mg/kg/injection, schedule: Q01DX001 (ip), vehicle: steriod suspending solution) 97 % of control; (dose: 400.0 mg/kg/injection, schedule: Q01DX001 (ip), vehicle: steriod suspending solution) 94 % of control.
Consider `CCCCCCCCCOc1ccc(C=Nc2ccc(CC)cc2)cc1`, for which the T/C is 92 % of control (dose: 12.5 mg/kg/injection, schedule: Q01DX009 (ip), vehicle: Klucel (hydroxypropylcellulose) (HPC)); 90 % of control (dose: 25.0 mg/kg/injection, schedule: Q01DX009 (ip), vehicle: Klucel (hydroxypropylcellulose) (HPC)); 92 % of control (dose: 50.0 mg/kg/injection, schedule: Q01DX009 (ip), vehicle: Klucel (hydroxypropylcellulose) (HPC)).
For the molecule `Cc1ccc(C2=NN(c3ccccc3)C(c3ccccc3)C2NC2CCCCC2)cc1` (stereo not given), the T/C is, setting by setting: (dose: 100.0 mg/kg/injection, schedule: Q01DX009 (ip), vehicle: acetone) 86 % of control; (dose: 400.0 mg/kg/injection, schedule: Q01DX009 (ip), vehicle: acetone) 100 % of control.
